{"source": "patent US20170107257A1", "about": "“CYCLIC APELIN ANALOGS” (LANTHIOPEP B.V., priority 2014, published 2017)", "key": {"[1]": {"test": "Stability of apelin analogs in rat plasma", "type": "in vitro ADME", "description": "Stability of apelin analogs in rat plasma. […] Samples were quenched by acidifying to final concentration of 5% TFA. Samples were analyzed on HPLC. Peak heights were plotted as relative to the initial peak heights."}, "hAPJ [2]": {"target": "T1, hAPJ (Homo sapiens, UniProt P35414)", "T1 sequence (P35414 1-380)": "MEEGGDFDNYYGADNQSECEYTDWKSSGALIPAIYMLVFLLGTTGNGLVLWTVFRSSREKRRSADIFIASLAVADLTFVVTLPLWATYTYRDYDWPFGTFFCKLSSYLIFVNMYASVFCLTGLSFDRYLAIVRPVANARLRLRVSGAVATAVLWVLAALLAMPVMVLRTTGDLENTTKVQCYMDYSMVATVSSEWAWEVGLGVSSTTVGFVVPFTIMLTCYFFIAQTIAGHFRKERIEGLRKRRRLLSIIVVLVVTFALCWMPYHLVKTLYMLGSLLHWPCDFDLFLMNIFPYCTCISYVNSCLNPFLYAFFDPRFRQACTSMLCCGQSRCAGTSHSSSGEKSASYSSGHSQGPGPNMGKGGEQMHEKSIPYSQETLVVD", "test": "APJ competition binding assay ([125I]-Apelin 13, SPA, HEK293 membranes)", "design": "expressed in transfected cells; host or cells: HEK293, adenoviral transduction (Ad-GFP-hAPJ)", "conditions": "competition with 0.06 nM [Glp65,Nle75,Tyr77][125I]-Apelin 13; read-out: Relative IC50, hAPJ BINDING", "quoted_text": "[Glp^65, Nle^75, Tyr^77][^125I]-Apelin 13 binding experiments are carried out in SPA 96-well format. Membranes used in this assay are prepared from HEK293 cells stably expressing either recombinant hAPJ or rAPJ. The incubation is initiated by the addition of a mixture of WGA PVT SPA beads (0.5 mg/well) and 0.08 μg of membranes to an assay buffer (25 mM HEPES, 10 mM MgCl2, 1 mM CaCl2, 0.1% BSA, pH7.4) containing 0.06 nM [Glp^65, Nle^75, Tyr^77][^125I]-Apelin 13 and increasing concentrations of the tested compound (10 point concentration response curves). Non-specific binding is determined in the presence of 100 nM apelin 17. Samples are incubated during eight hours at room temperature (22° C.). Then, 96-well plates are read in a Microbeta Trilux."}, "[3]": {"target": "T2, HEK293 cells expressing recombinant APJ receptors (Homo sapiens, UniProt P35414)", "T2 construct": "expressed in transfected cells; host or cells: HEK293", "T2 sequence (P35414 1-380)": "T1 sequence (P35414 1-380)", "test": "Forskolin-stimulated cAMP assay (HTRF)", "type": "cell-based", "conditions": "10 μM forskolin, 0.5 mM IBMX, 40 min; read-out: Relative EC50 (nM), cAMP", "quoted_text": "Cyclic AMP level in HEK293 cells expressing recombinant APJ receptors is assayed by an HTRF competitive immunoassay. Cells at a density of 4000 cells/well are resuspended in assay buffer (HBSS containing Ca^2+ and Mg^2+ supplemented with 0.1% BSA and 5 mM HEPES) and added to the assay plate. Incubation for 40 min at room temperature is started with the addition of increasing concentrations of the compounds containing 10 μM forskolin and 0.5 mM IBMX. Reaction is stopped by addition of lysis buffer including d2-labeled cAMP, followed by addition of cryptate-labeled anti-cAMP monoclonal antibody, according to the manufacturer instructions. Time-resolved fluorescence at 620 and 665 nm is measured in an Envision instrument after 2 hour incubation at room temperature in the dark. cAMP content in the samples is determined by interpolation in a cAMP standard curve."}, "hAPJ [4]": {"target": "T1, hAPJ", "test": "beta arrestin assay (DiscoverX)", "type": "cell-based", "conditions": "for Ratio β-arrestin/cAMP: ratio of β-arrestin EC50 to cAMP EC50; for EC50: read-out: β-arrestin EC50", "quoted_text": "(§1) (Me)lan apelin variants were tested with cAMP and beta arrestin assays from the company DiscoverX."}, "hAPJ [5]": {"target": "T1, hAPJ", "test": "cAMP assay (DiscoverX)", "type": "cell-based", "quoted_text": "as §1"}, "hAPJ [6]": {"target": "T3, hAPJ (Homo sapiens, UniProt P35414)", "T3 construct": "host or cells: CHO-K1", "test": "hAPJ β-arrestin recruitment assay (PathHunter, CHO-K1)", "type": "cell-based", "conditions": "for EC50: 90 min incubation at 37° C., read-out: Relative EC50, Arrestin recruitment", "T3 sequence (P32121 whole entry partner, one chain of several)": "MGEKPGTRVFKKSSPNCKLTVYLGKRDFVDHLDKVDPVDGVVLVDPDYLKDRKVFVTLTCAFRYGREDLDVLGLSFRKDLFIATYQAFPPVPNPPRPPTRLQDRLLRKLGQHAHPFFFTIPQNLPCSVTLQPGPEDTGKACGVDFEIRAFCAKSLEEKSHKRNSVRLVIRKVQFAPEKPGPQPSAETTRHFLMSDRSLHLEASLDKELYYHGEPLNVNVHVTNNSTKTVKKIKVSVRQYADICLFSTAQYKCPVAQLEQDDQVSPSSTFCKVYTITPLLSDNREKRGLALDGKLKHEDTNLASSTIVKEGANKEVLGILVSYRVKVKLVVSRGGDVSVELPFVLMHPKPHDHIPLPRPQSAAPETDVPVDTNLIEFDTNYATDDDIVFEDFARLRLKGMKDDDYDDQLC", "quoted_text": "Stimulation of hAPJ interaction with 6-arrestin is studied using the PathHunter™ system from DiscoveRx. CHO-K1 cell line was engineered to co-express the ProLink/Enzyme donor (PK)-tagged APJ and the enzyme activator (EA)-tagged 6-arrestin fusion proteins. Upon GPCR activation, enzyme fragment complementation occurs, to produce an active β-Gal enzyme. These cells are seeded at a density of 15000 cells/well. […] Following 90 min incubation at 37° C. with the compounds, cells are lysed and incubated with PathHunter reagent for 1 hour at room temperature. Samples are then read with an ultrasensitive luminescence protocol using an Envision instrument (Perkin Elmer)."}, "hAPJ [7]": {"target": "T1, hAPJ", "test": "hAPJ receptor internalization assay (APJ-GFP translocation, HEK293)", "type": "cell-based", "design": "expressed in transfected cells; host or cells: HEK293, adenoviral transduction (Ad-GFP-hAPJ)", "conditions": "500 nM max, read-out: Relative EC50 (nM), hAPJ internalisation", "quoted_text": "HEK293 cells are seeded 24 hours prior to experiment at 50% confluence in 2×F75 flasks. The next morning, cells are trypsinized, vortexed for 60 seconds and passed through a 40 micron mesh filter. Cells are resuspended at a density of 300,000 cells/ml in OptiMEM+2% FBS, and Ad-GFP-hAPJ virus is added at an MOI of 1 PFU/cell. Cells are vortexed and dispensed into 96 well clear bottom, black dishes at a concentration of 10,000 cells/well. Cells are maintained at room temperature for 30 minutes to allow cell attachment to the dish prior to Incubation overnight at 37° C. in a 5% CO2 incubator. Next morning, apelin analogs are added in a concentration response curve (500 nM max). APJ-GFP translocation is observed and documented on Olympus FV con-focal microscope."}, "[8]": {"system": "human immunodeficiency virus", "conditions": "cited from earlier work"}}, "note": "Where two headings read alike, the source gives them in different places. Numbered stars: 1 amine (or outer) side, 2 acyl side, 3 side chain; on linkers, the order of the positions; unused ones are H or OH. Bridge positions count the residues as written; N and C are the ends. Square brackets hold non-standard residues; d marks the D form. Peptide text beside a SMILES is read from it. ξ: configuration not given here. ξAbu(3ξ-yl) = CC(C(N[*:1])C(=O)[*:2])[*:3]; pGlu = O=C1CC[C@@H](C(=O)O)N1; ξC = NC(CS)C(=O)O"}
{"smiles": "CSCC[C@H](NC(=O)[C@@H]1CCCN1C(=O)C1CSC(C)C(NC(=O)[C@H](CC(C)C)NC(=O)[C@H](CCCNC(=N)N)NC(=O)[C@@H]2CCCN2C(=O)[C@H](CCCNC(=N)N)NC(=O)[C@@H]2CCC(=O)N2)C(=O)N[C@@H](Cc2c[nH]cn2)C(=O)N[C@@H](CCCCN)C(=O)N1)C(=O)N1CCC[C@H]1C(=O)N[C@@H](Cc1ccccc1)C(=O)O", "note": "(stereo partly shown) [pEApeM5, pERPRLmelanHKmelanPMPF] ([pGlu]RPRL[ξAbu(3ξ-yl)]HK[ξC]PMPF-OH; thioether 6-9; C-terminus assumed)", "values": [{"measurement": "half-life at 0.1 mg/ml", "setting": "[1]; rat, plasma, pH 7.4", "value": 9, "unit": "h"}, {"measurement": "IC50", "setting": "hAPJ [2]", "value": 115, "unit": "nM"}, {"measurement": "EC50", "setting": "[3]", "value": 29.3, "unit": "nM"}, {"measurement": "Ratio β-arrestin/cAMP", "setting": "hAPJ [4]", "value": 9}, {"measurement": "EC50", "setting": "hAPJ [4]", "value": 67, "unit": "nM"}, {"measurement": "EC50", "setting": "hAPJ [5]", "value": 7, "unit": "nM"}, {"measurement": "activity in arrestin recruitment assay", "setting": "hAPJ [6]", "value": "significant activity"}, {"measurement": "EC50", "setting": "hAPJ [6]", "value": 14.1, "unit": "nM"}, {"measurement": "EC50", "setting": "hAPJ [7]", "value": 1.25, "unit": "nM"}]}
{"smiles": "CSCC[C@H](NC(=O)C1CSC(C)C(NC(=O)[C@H](CC(C)C)NC(=O)[C@H](CCCNC(=N)N)NC(=O)[C@@H]2CCCN2C(=O)[C@H](CCCNC(=N)N)NC(=O)[C@@H]2CCC(=O)N2)C(=O)N[C@@H](Cc2c[nH]cn2)C(=O)N[C@@H](CCCCN)C(=O)NCC(=O)N1)C(=O)N1CCC[C@H]1C(=O)N[C@@H](Cc1ccccc1)C(=O)O", "note": "(stereo partly shown) [pEApeM8, pERPRLmeLanHKGmeLanMPF] ([pGlu]RPRL[ξAbu(3ξ-yl)]HKG[ξC]MPF-OH; thioether 6-10; C-terminus assumed)", "values": [{"measurement": "half-life at 0.1 mg/ml", "setting": "[1]; rat, plasma, pH 7.4", "value": 24, "unit": "h"}, {"measurement": "IC50", "setting": "hAPJ [2]", "value": "> 1000", "unit": "nM"}, {"measurement": "EC50", "setting": "[3]", "value": "> 300", "unit": "nM"}, {"measurement": "Ratio β-arrestin/cAMP", "setting": "hAPJ [4]", "value": ">8"}, {"measurement": "EC50", "setting": "hAPJ [4]", "value": "> 1000", "unit": "nM"}, {"measurement": "EC50", "setting": "hAPJ [5]", "value": 125, "unit": "nM"}, {"measurement": "EC50", "setting": "hAPJ [6]", "value": "> 300", "unit": "nM"}, {"measurement": "EC50", "setting": "hAPJ [7]", "value": "> 1000", "unit": "nM"}]}
{"smiles": "CSCC[C@H](NC(=O)[C@@H]1CCCN1C(=O)CNC(=O)[C@H](CCCCN)NC(=O)[C@H](Cc1c[nH]cn1)NC(=O)[C@H](CO)NC(=O)[C@H](CC(C)C)NC(=O)[C@H](CCCNC(=N)N)NC(=O)[C@@H]1CCCN1C(=O)[C@H](CCCNC(=N)N)NC(=O)[C@@H](N)CCC(N)=O)C(=O)N1CCC[C@H]1C(=O)N[C@@H](Cc1ccccc1)C(=O)O", "note": "[reference compound]", "values": [{"measurement": "half-life at 0.1 mg/ml", "setting": "[1]; 10% rat plasma, pH 7.4, 37° C., 0.1 mg/ml, read-out: T50 stability in rat plasma (converted)", "value": 1, "unit": "h"}, {"measurement": "blocking of HIV entry into cells", "setting": "[8]", "value": "poorly blocks"}]}
